≈ marks a conversion by molar mass, not a printed value.
Experiments:
[1] = ABTS radical scavenging assay; settings: 10 min in the dark, absorbance 720 nm; mean ± SD, triplicates
Procedure: In-vitro 2, 2′-azino-bis (3-ethylbenzothiazoline-6-sulphonic acid) (ABTS) scavenging assay was performed as by Liyanaarachchi et al.. An aliquot of 1 mL of plant extract of varying concentrations was mixed with 3 mL of ABTS working solution and incubated for 10 min in the dark and the decrease in absorbance was recorded at λ = 720 nm in a UV-visible spectrophotometer. Gallic acid and 50% methanol were used as reference and positive control respectively.

[2] = DPPH radical scavenging assay; settings: 30 min in the dark, absorbance 517 nm; mean ± SD, triplicates
Procedure: In-vitro antioxidant potential of the different extracts of B. pacumbis was assessed by 1,1-diphenyl 1–2-picryl-hydrazyl (DPPH) assay accordingly with Jha et al.. One milliliter of plant extract of different concentrations was added in 3 mL of the DPPH solution ([…]) and incubated for 30 min in the dark. Absorbance was measured at the wavelength (λ) = 517 nm in a UV-visible spectrophotometer (UV-1800, SHIMADZU). Gallic acid and methanolic DPPH were used as reference and positive control respectively.

O=C(O)c1cc(O)c(O)c(O)c1 [Gallic Acid]
IC50 Value ABTS [1]: 1.96 ± 0.05 µg/mL (≈ 11.5 µM)
IC50 Value DPPH [2]: 5.12 ± 0.12 µg/mL (≈ 30.1 µM)

Reference: publication PMC7318538, “Bergenia pacumbis from Nepal, an astonishing enzymes inhibitor” (BMC Complementary Medicine and Therapies, 2020)
